{"source": "paper PMC11395447", "about": "“Development and Optimization of a Bromothymol Blue-Based PLA2 Assay Involving POPC-Based Self-Assemblies” (International Journal of Molecular Sciences, 2024)", "biological_target": "T1, PLA2-IB (Phospholipase A2 IB) (Sus scrofa, UniProt P00592)", "T1 construct": "gene PLA2G1B", "T1 sequence (P00592 23-146)": "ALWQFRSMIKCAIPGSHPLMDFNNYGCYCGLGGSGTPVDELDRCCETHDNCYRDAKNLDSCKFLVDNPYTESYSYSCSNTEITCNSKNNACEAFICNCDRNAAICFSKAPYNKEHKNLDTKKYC", "assay": "bromothymol blue absorbance assay, Michaelis-Menten kinetics on POPC liposomes (Km)", "type": "biochemical", "data": [{"substance": "POPC", "values": [{"measurement": "Km", "result": 12.9, "unit": "µM"}]}]}
